The source of these data is patent publication US20190184069A1, “ANTIMICROBIAL COMPOSITIONS COMPRISING MINOCYCLINE AND DEGRADATION PRODUCTS OF OXIDIZED CELLULOSE” (Omrix Biopharmaceuticals Ltd., priority 2017, published 2019).

Experiment [1] relates to S. aureus. The experiment can be described thus: Tertiary stage: antimicrobial activity (ET50/MIC) of extract of degradation products of antibiotic-impregnated ORC pads, single or combination. Type of experiment: cell-based, Staphylococcus aureus. Particulars: impregnated on ORC pad together with 1.26 ng/ml minocycline. Here is the method:
Solutions comprising different concentrations of antibiotics to be tested were prepared in methanol.
Blank ORC pads of dimensions 1×1.5 inch, weighing between 65-75 mg (70 mg on average), in duplicate, were immersed in the antibiotic solutions and then dried using a rotary evaporator to provide extract of degradation products of antibiotic-impregnated ORC pads.
15 ml test tubes containing 3 ml of sterile PBS were prepared, and the antibiotic-impregnated ORC pads were immersed in the tubes and incubated for 3-5 hours at ambient temperature on a roller mixer (Stuart, Cat#SRT9D).
Each of the above extracts was filtered out using a sterile 0.8/0.2 μm syringe filter into a clean 15 ml tube. These extraction fluids are referred to herein as “extract of degradation products of antibiotic-impregnated ORC”.
Briefly, ORC pads weighing on average 70 mg each were impregnated with the selected antibiotic. Extracts of degradation products of antibiotic-impregnated ORC were prepared by immersion and incubation in 3 ml of sterile PBS for 3 hours at ambient temperature. The ORC degeneration products were then removed, and any remaining ORC particles were filtered out using a […] syringe filter. This extraction fluid was then diluted 10-fold into Muller Hinton growth medium containing bacteria. Bacterial growth was monitored every 20 min for a total of 18 hours according to optical density (OD) at 600 nm, using an ELISA reader.
Since the study included many possible combinations of two antibiotics, each with their own different concentration range, a matrix of possible antibiotic concentrations was designed, and degradation products of ORC were prepared accordingly (see Table 10). Since all the possible combinations could not be fitted into one 96 well plate, a series of MIC experiments were carried out.

Experiment [2] has as its system S. aureus. The experiment in a line: Primary stage MIC measurement of antibiotic alone (OD 600 nm growth curves, 18 h). Type of experiment: cell-based, Staphylococcus aureus. The text has this:
The following day, the turbidity of the actively-growing broth culture was adjusted with Calcium-adjusted Mueller Hinton broth II (MHBII) to be equivalent to that of a 0.5 McFarland standard (1×10^8 CFU/ml). The broth culture was maintained under ambient conditions prior to use.
The method used in this stage was based on the classic Minimum Inhibitory Concentration (MIC) measurements, as described by the Clinical and Laboratory Standards Institute (CLSI) document M07-A9: “Method for Dilution Antimicrobial Susceptibility Test for Bacteria that Grow Aerobically”. While classic MIC measurements require visual inspection of plates for bacterial growth after 18 hours, growth was monitored in the present study according to optical density (OD) at 600 nm, using an ELISA reader (MultiSkan™ FC ELISA reader, Thermo Fisher Scientific, Massachusetts, USA), thereby obtaining bacterial growth curves for tested antibiotic solutions.
Columns 1 and 3-12: 100 μl of MHBII alone was added to each well.
[…]: 200 μl of a solution of antibiotic in MHBII at the highest concentration to be tested was added to each well.
A series of 2-fold dilutions was performed, wherein 100 μl of solution of antibiotic was withdrawn from each well of column 2, transferred to the corresponding well of column 3, and mixed.
The dilution was then repeated by transfer from column 3 to column 4, and so on, until column 11, when the 100 μl of solution of antibiotic withdrawn from each well of column 11 was discarded.
(§1) The 5×10^6 CFU/ml stock suspension which had been prepared in advance was transferred into a reservoir and 10 μl of the stock suspension were added into each well of columns 2-11 using a multichannel pipette to obtain a final 5×10^5 CFU/ml suspension.
The plate was then incubated at 37° C. with shaking in the ELISA reader and the optical density at 600 nm was read every 20 minutes for a total of 18 hours.
The average OD reading obtained for each antibiotic concentration was calculated and plotted against time to obtain a growth curve.
The MIC was determined as the first antibiotic concentration at which […] by the end of the 18-hour period.

Experiment [3] deals with S. aureus. The experiment can be described thus: Secondary stage: bacterial growth (ET50/MIC) of antibiotics with or without extract of degradation products of ORC. Type of experiment: cell-based, Staphylococcus aureus. Particulars: for Effect of addition of degradation products of ORC on the antibiotic activity: antibiotic with versus without ORC degradation products.
Source text: ORC pads which had not been impregnated with antibiotic (referred to herein as “blank ORC pads”), were subjected to extraction and degradation in PBS for three hours at ambient temperature. Extract obtained from these blank ORC pads is referred to herein as “blank extract of degradation products of ORC”.
Blank ORC pads were subjected to extraction and degradation in a solution of antibiotic in PBS. Extracts of degradation products obtained from blank ORC pads in a solution of antibiotic in PBS is referred to herein as “extracts of degradation products of blank ORC in antibiotic”.
Due to the acidity of ORC, which provides some antibiotic effect, the size of the pad used was small i.e. approximately 1×1.5 inch, weighing between 65-75 mg (70 mg on average) in order to prevent the ORC from affecting the final pH of the assay and therefore the growth of the bacteria.
15 ml tubes, each containing 3 ml of an antibiotic solution at a known concentration in sterile PBS, were prepared in duplicate.
Blank ORC pads were subjected to extraction and degradation in the antibiotic solution by immersing the ORC pads in the antibiotic solution for 3-5 hours at ambient temperature on a roller mixer (Stuart, Cat#SRT9D).
Blank extract of degradation products of ORC and extract in antibiotic of degradation products of ORC, prepared as described above, were diluted 10 folds in MHBII in sterile 15 ml capped tubes.
as §1
Columns 3 to 6, rows B to F, were filled with the Blank ORC extracted in antibiotic at decreasing concentrations 1 to 5, diluted 10 folds in MHBII. Each sample tested was placed in 4 well repeats for statistical results.
Columns 7 to 10, rows B to F, were filled with the antibiotic solution (AB) at decreasing concentrations 1 to 5, diluted 10 folds in MHBII. Each sample tested was placed in 4 well repeats for statistical results.
Columns 3 to 6, row G, were filled with the blank extract of degradation products of ORC (PBS-ORC) diluted 10 folds in MHBII.
The plate was incubated at 37° C. with shaking in the ELISA reader and the optical density at 600 nm was read every 20 minutes for a total of 18 hours.
The average and standard deviation for OD readings was calculated for each time point of the wells using Excel. The average values were plotted against time to obtain a graph of the bacterial growth curves in the presence of each of the antibiotics tested.
In some cases, the average OD was plotted for a single endpoint of 800 minutes for the various antibiotic treatments and controls.
The average values were also entered into the GraphPad Prism program (GraphPad Software Inc., CA, USA) in order to calculate the Effective Time 50 (ET50) i.e. the time, in minutes, required for the antibiotic to induce a response halfway between the baseline and maximum, where the maximum is the bacterial growth in MHBII with PBS. This provides a quantifiable measure of the efficacy of the antibiotics tested and enables comparison of the various samples tested.

Experiment [4] has as its system S. aureus. Particulars: cited from earlier work.

“Also recorded” adds a separate entry of the source. Where only a bound is given, the exact number is not on record here.

Consider `CCC[C@@H]1C[C@@H](C(=O)N[C@@H]([C@H]2O[C@H](SC)[C@H](O)[C@@H](O)[C@H]2O)[C@H](C)Cl)N(C)C1` [Clindamycin, clindamycin], for which, in experiment [1], the “Clindamycin level sufficient for growth inhibition of S. aureus in combination” value was 8.9 ng/mL. Moreover, the “MIC as single antibiotics in the absence of ORC (first stage MIC results)” value in experiment [2] was found to be 0.062 µg/mL. The “Effect of addition of degradation products of ORC on the antibiotic activity” value (“Effect” for short) in experiment [3] is given as “no effect”.
As to `CN(C)[C@@H]1C(O)=C(C(N)=O)C(=O)[C@@]2(O)C(O)=C3C(=O)c4c(O)cccc4[C@@](C)(O)[C@H]3C[C@@H]12` [Tetracycline], the “Effect” value in experiment [3] is “no effect”. The ET50 is 517.7 min in experiment [3] (tetracycline 0.025 μg/ml, +ORC degradation products); 531.1 min in experiment [3] (tetracycline 0.025 μg/ml, −ORC); 741.1 min in experiment [3] (tetracycline 0.05 μg/ml, +ORC degradation products); 989.9 min in experiment [3] (tetracycline 0.05 μg/ml, −ORC); 1470 min in experiment [3] (tetracycline 0.1 μg/ml, +ORC degradation products); 1889 min in experiment [3] (tetracycline 0.1 μg/ml, −ORC). Besides, the ET50 is above 2000 min in experiment [3] (tetracycline 0.2 μg/ml, +ORC degradation products); above 2000 min in experiment [3] (tetracycline 0.2 μg/ml, −ORC); above 2000 min in experiment [3] (tetracycline 0.4 μg/ml, +ORC degradation products); above 2000 min in experiment [3] (tetracycline 0.4 μg/ml, −ORC).
For the compound Gentamycin [Gentamicin], in experiment [4], the “MIC values for S. aureus according to the literature” value is 0.12 to 1 µg/mL. Moreover, the “MIC values found in the present study (primary stage, Example 1)” value in experiment [2] (antibiotic alone, no ORC) amounted to 0.25 µg/mL. In experiment [3], the “Effect” value is reported as “reduction in the antibiotic activity; also recorded: decreased antibiotic activity; also recorded: lowering of the antibiotic activity; also recorded: impaired”. Besides, the ET50 in experiment [3] (gentamycin 0.1 μg/ml, +ORC degradation products) was found to be 423.7 min; in experiment [3] (gentamycin 0.1 μg/ml, −ORC) it was 509.4 min; in experiment [3] (gentamycin 0.3 μg/ml, +ORC degradation products), 429.3 min; in experiment [3] (gentamycin 0.3 μg/ml, −ORC), 1360 min; in experiment [3] (gentamycin 0.5 μg/ml, +ORC degradation products) it was 423.1 min; in experiment [3] (gentamycin 0.8 μg/ml, +ORC degradation products) it was 422.7 min. This compound yielded an ET50 in experiment [3] (gentamycin 1 μg/ml, +ORC degradation products) of 446.6 min.
